Laboratory results published in the NIST ThermoML archive (doi:10.1021/je800817b).

Assay: xn = mol fraction of the nth substance listed
Details: 101 kPa, Liquid, x1 = 0

Compound `CCCCCCCCn1cc[n+](C)c1.O=S(=O)([N-]S(=O)(=O)C(F)(F)F)C(F)(F)F` + CO has a binary diffusion coefficient (283 K) of 9.9e-10 m2/s, a binary diffusion coefficient (298 K) of 1.32e-09 m2/s and a binary diffusion coefficient (313 K) of 1.59e-09 m2/s. For the same compound, the binary diffusion coefficient (323 K) was 1.83e-09 m2/s and the binary diffusion coefficient (333 K) was 2.12e-09 m2/s.

Compound `CCCCCC[n+]1ccn(C)c1.O=S(=O)([N-]S(=O)(=O)C(F)(F)F)C(F)(F)F` + CO has a binary diffusion coefficient (283 K) of 1.05e-09 m2/s, a binary diffusion coefficient (298 K) of 1.34e-09 m2/s and a binary diffusion coefficient (313 K) of 1.64e-09 m2/s. The binary diffusion coefficient (323 K) was 1.99e-09 m2/s and the binary diffusion coefficient (333 K) was 2.21e-09 m2/s.

Compound `CCCCn1cc[n+](C)c1.F[B-](F)(F)F` [1-butyl-3-methylimidazolium tetrafluoroborate] + O has a binary diffusion coefficient (283 K) of 7.7e-10 m2/s, a binary diffusion coefficient (298 K) of 1.14e-09 m2/s and a binary diffusion coefficient (303 K) of 1.28e-09 m2/s. It also gave a binary diffusion coefficient (313 K) of 1.55e-09 m2/s, a binary diffusion coefficient (323 K) of 1.97e-09 m2/s and a binary diffusion coefficient (333 K) of 2.26e-09 m2/s.

Compound `CCCCCC[n+]1ccn(C)c1.O=S(=O)([N-]S(=O)(=O)C(F)(F)F)C(F)(F)F` + O has a binary diffusion coefficient (283 K) of 5.8e-10 m2/s, a binary diffusion coefficient (298 K) of 8.3e-10 m2/s and a binary diffusion coefficient (303 K) of 9e-10 m2/s. The binary diffusion coefficient (313 K) was 1.15e-09 m2/s, the binary diffusion coefficient (323 K) was 1.39e-09 m2/s and the binary diffusion coefficient (333 K) was 1.63e-09 m2/s.

Work on `CCCCCCCCn1cc[n+](C)c1.O=S(=O)([N-]S(=O)(=O)C(F)(F)F)C(F)(F)F` + O yielded a binary diffusion coefficient (283 K) of 5.7e-10 m2/s, a binary diffusion coefficient (298 K) of 8.1e-10 m2/s and a binary diffusion coefficient (303 K) of 8.7e-10 m2/s. It also gave a binary diffusion coefficient (313 K) of 1.05e-09 m2/s, a binary diffusion coefficient (323 K) of 1.31e-09 m2/s and a binary diffusion coefficient (333 K) of 1.47e-09 m2/s.

`CCn1cc[n+](C)c1.O=S(=O)([N-]S(=O)(=O)C(F)(F)F)C(F)(F)F` + CC#N showed a binary diffusion coefficient (283 K) of 1.79e-09 m2/s, a binary diffusion coefficient (298 K) of 2.29e-09 m2/s and a binary diffusion coefficient (313 K) of 2.78e-09 m2/s. For the same compound, the binary diffusion coefficient (323 K) was 3.15e-09 m2/s and the binary diffusion coefficient (333 K) was 3.48e-09 m2/s.

`CCCC[n+]1ccn(C)c1.O=S(=O)([N-]S(=O)(=O)C(F)(F)F)C(F)(F)F` + CO showed a binary diffusion coefficient (283 K) of 1.11e-09 m2/s, a binary diffusion coefficient (298 K) of 1.48e-09 m2/s and a binary diffusion coefficient (313 K) of 1.88e-09 m2/s. It also gave a binary diffusion coefficient (323 K) of 2.15e-09 m2/s and a binary diffusion coefficient (333 K) of 2.43e-09 m2/s.

For `CCCC[n+]1ccn(C)c1.O=S(=O)([N-]S(=O)(=O)C(F)(F)F)C(F)(F)F` + O, the binary diffusion coefficient (283 K) was 6e-10 m2/s, the binary diffusion coefficient (298 K) was 8.5e-10 m2/s and the binary diffusion coefficient (303 K) was 9.6e-10 m2/s. For the same compound, the binary diffusion coefficient (313 K) was 1.16e-09 m2/s, the binary diffusion coefficient (323 K) was 1.47e-09 m2/s and the binary diffusion coefficient (333 K) was 1.74e-09 m2/s.

Work on `CCn1cc[n+](C)c1.O=S(=O)([N-]S(=O)(=O)C(F)(F)F)C(F)(F)F` + CO yielded a binary diffusion coefficient (283 K) of 1.17e-09 m2/s, a binary diffusion coefficient (298 K) of 1.6e-09 m2/s and a binary diffusion coefficient (313 K) of 2.03e-09 m2/s. For the same compound, the binary diffusion coefficient (323 K) was 2.3e-09 m2/s and the binary diffusion coefficient (333 K) was 2.69e-09 m2/s.

Compound `CCCCCC[n+]1ccn(C)c1.O=S(=O)([N-]S(=O)(=O)C(F)(F)F)C(F)(F)F` + CC#N has a binary diffusion coefficient (283 K) of 1.67e-09 m2/s, a binary diffusion coefficient (298 K) of 2.1e-09 m2/s and a binary diffusion coefficient (313 K) of 2.51e-09 m2/s. For the same compound, the binary diffusion coefficient (323 K) was 2.74e-09 m2/s and the binary diffusion coefficient (333 K) was 2.99e-09 m2/s.

With `CCCC[n+]1ccn(C)c1.O=S(=O)([N-]S(=O)(=O)C(F)(F)F)C(F)(F)F` + CC#N the binary diffusion coefficient (283 K) was 1.7e-09 m2/s, the binary diffusion coefficient (298 K) was 2.22e-09 m2/s and the binary diffusion coefficient (313 K) was 2.7e-09 m2/s. It also gave a binary diffusion coefficient (323 K) of 3.07e-09 m2/s and a binary diffusion coefficient (333 K) of 3.45e-09 m2/s.

`CCn1cc[n+](C)c1.O=S(=O)([N-]S(=O)(=O)C(F)(F)F)C(F)(F)F` + O gave a binary diffusion coefficient (283 K) of 6.1e-10 m2/s, a binary diffusion coefficient (298 K) of 8.9e-10 m2/s and a binary diffusion coefficient (303 K) of 9.8e-10 m2/s. For the same compound, the binary diffusion coefficient (313 K) was 1.27e-09 m2/s, the binary diffusion coefficient (323 K) was 1.55e-09 m2/s and the binary diffusion coefficient (333 K) was 1.85e-09 m2/s.

Compound `CCCCn1cc[n+](C)c1.[Cl-]` [1-butyl-3-methylimidazolium chloride] + O has a binary diffusion coefficient (283 K) of 8.3e-10 m2/s, a binary diffusion coefficient (298 K) of 1.18e-09 m2/s and a binary diffusion coefficient (303 K) of 1.32e-09 m2/s. For the same compound, the binary diffusion coefficient (313 K) was 1.66e-09 m2/s, the binary diffusion coefficient (323 K) was 2.01e-09 m2/s and the binary diffusion coefficient (333 K) was 2.4e-09 m2/s.

With `CCCCCCCCn1cc[n+](C)c1.O=S(=O)([N-]S(=O)(=O)C(F)(F)F)C(F)(F)F` + CC#N the binary diffusion coefficient (283 K) was 1.62e-09 m2/s, the binary diffusion coefficient (298 K) was 2e-09 m2/s and the binary diffusion coefficient (313 K) was 2.31e-09 m2/s. It also gave a binary diffusion coefficient (323 K) of 2.57e-09 m2/s and a binary diffusion coefficient (333 K) of 2.86e-09 m2/s.
